Experiments:
[1] = tested on: KYSE-410 cells; assay: Chemosensitivity testing, CellTiter-Glo 2.0 cell viability, KYSE-410 cells; type: cell-based, Human; conditions: for chemosensitivity to Cisplatin restored: cisplatin 72 hr; for sensitivity to cisplatin: exon 4 targeting
From the text: The data was plotted with the coefficient of variance.
To evaluate this approach for broad based applications, we executed the same protocol on KYSE-410 cells which originate from the poorly differentiated invasive esophageal squamous cell carcinoma resected from the cervical esophagus of a person prior to treatment^41. First, we confirmed that the DNA sequence of exon 2 and exon 4 was identical and amenable to targeting with CRISPRs sg3, sg76, or sg83 respectively (data not shown). While this may seem like a trivial matter, it is not, particularly with mutator phenotypes in transformed cells. Plated cells were allowed to recover for 24 hours prior to transfection with the same CRISPR complexes as described in FIG. 12. […] These overall levels are generally considered to be a complete genetic disruption of a mammalian gene. The percentage of frameshift mutations created by the action of these guide RNAs mimics those levels seen previously in FADU cells. […] The expression levels of NRF2, NQO1, HMOX1, and GCLC were also assessed, FIG. 13C. […] This analysis further supports that disruption of NRF2 in exon 4 has a higher impact on overcoming chemosensitivity by disrupting its function of activating downstream genes.

[2] = tested on: NRF2 downstream target genes (NQO1, HMOX1, GCLC); assay: qPCR gene expression analysis of NRF2 and downstream targets in KYSE-410 cells; type: cell-based, Human; conditions: for NQO1 expression (qPCR): vs wildtype unedited cells, without cisplatin exposure
Experimental: Total RNA was isolated from edited cells using TRIzol reagent and PureLink RNA Mini Kit (Thermo Fisher Scientific, Waltham, MA). Reverse transcription was conducted using the Applied Biosystems High-Capacity RNA-to-cDNA kit (Thermo Fisher Scientific, Waltham, MA). The cDNA was used as the template in the qPCR amplification of GAPDH (Fwd 5′ […]3′ (SEQ ID NO:76), Rev 5′[…]3′ (SEQ ID NO:77)), NRF2 (Fwd 5′[…]3′ (SEQ ID NO:78), Rev 5′[…]3′ (SEQ ID NO:79)), NQO1 (Fwd 5′[…]3′ (SEQ ID NO:80), Rev 5′[…]3′ (SEQ ID NO:81)), HMOX1 (Fwd 5′ […]3′ (SEQ ID NO:82), Rev 5′[…]3′ (SEQ ID NO:83)) and GCLC (Fwd 5′[…]3′ (SEQ ID NO:84), Rev 5′ […]3′ (SEQ ID NO:85)) transcripts using the SsoAdvanced universal SYBR Green Supermix (BioRad, Hercules, CA). The experiment was conducted at least twice with all samples run in duplicate at minimum. Relative expression levels of mRNA were calculated using the Livak method and normalized to the control. The data was plotted with the coefficient of variance.
For all gene editing studies from bench to bedside, it is important to employ a functional assay, accompanied by an internal functional control, to assess the efficiency of CRISPR/Cas activity. In this case, NRF2 is a transcription factor that controls the expression of over 200 genes. Thus, NRF2 disruption can be measured functionally through qPCR analysis of NQO1 expression, a keystone gene controlled by NRF2. NQO1 has been used as a standard measure of NRF2 activity in cancer cells^40. We also use downstream targets HMOX1 and GCLC, two major antioxidant enzymes, to assess NRF2 function.

[3] = tested on: FaDu cells; conditions: for viability after a single dose of Cisplatin: exon 4 edited, cisplatin 72 hours; for sensitivity to cisplatin: exon 4 targeting
[4] = tested on: A549 cells; assay: Cell viability (MTS) of gRNA-targeted A549 cells; type: cell-based, Human; conditions: without any cisplatin exposure (0 uM), vs wildtype untransfected cells
From the text: FIG. 4A-C: Lung adenocarcinoma cells targeting Exon 3, 4, 5 of NRF2 and assessment of chemotherapy response. (FIG. 4A) A549 cells were transfected with each respective gRNA. Genomic DNA from each cell population was isolated and amplified across exon 3, 4 or 5 of the NRF2 gene. Amplicons were sanger sequenced and analyzed for indels at the CRISPR target site. The graph presents the total editing efficiency listed as Indel and frameshifting indel % listed as FS. (FIG. 4B) Raw sequence files from cells targeted with gRNA 76 or gRNA 83 were aligned using the software program, DECODR, to display the indel pattern (listed as INDEL and %). […] Viability was measured via bioreduction of MTS to a formazan product. […] The average relative viability of cells in response to cisplatin is graphed above.
To assess CRISPR activity across various exons of NRF2, several gRNAs were designed along exon 3, 4 and 5 of the NRF2 gene in the A549 cell line. The A549 cells were transfected with each individually designed gRNA and cells were collected 72 hours after transfection. Genomic DNA was isolated, PCR amplified and Sanger sequenced. Editing activity was quantified using DECODR to deconvolute the indels present in at the cut site of each gRNA. […]

Substance	chemosensitivity to Cisplatin restored [1]	sensitivity to cisplatin [1]	NQO1 expression (qPCR) [2]	viability after a single dose of Cisplatin [3]	sensitivity to cisplatin [3]	NQO1 and GCLC expression ([2]; vs exon 2 (sg3) or exon 4 (sg76) targeted cells)	viability [4]
sg76: gRNA targeting exon 4 of NRF2; TCACTTGTTCCTGATATTCC CGG (guide TCACTTGTTCCTGATATTCCCGG; listed as DNA, chemistry not given here)	restored	enhanced sensitivity to cisplatin	significantly decreased	significant reduction in viability	enhanced sensitivity to cisplatin	–	–
sg83: gRNA targeting exon 4 of NRF2; GTAGCCCCTGTTGATTTAGA CGG (guide GTAGCCCCTGTTGATTTAGACGG; listed as DNA, chemistry not given here)	restored	enhanced sensitivity to cisplatin	significantly decreased	significant reduction in viability	enhanced sensitivity to cisplatin	lower levels of NQO1 and GCLC expression	much lower viability

From patent US20250319206A1, “CRISPR/CAS GENE EDITING OF NEH4 AND/OR NEH5 DOMAINS IN NRF2” (Christina Care Gene Editing Institute, Inc., priority 2024, published 2025)
